The values that follow come from patent US9284284B2, “Oxazine derivatives and their use in the treatment of disease” (NOVARTIS AG, priority 2011, dated 2016).

SMILES strings stand for the structures. pIC50: −log10 of the molar value.

For experiment [1], the system named is amyloid peptide 1-40 release. The experiment in a line: Test 4: Inhibition of Cellular Release of Amyloid Peptide 1-40. The class given is cell-based. To be noted: Cricetulus griseus; Chinese hamster ovary cells transfected with the human gene for amyloid precursor protein, 24 hours; read-out: Amyloid-β1-40 release IC50. How it is done:
Chinese hamster ovary cells are transfected with the human gene for amyloid precursor protein. The cells are plated at a density of 8000 cells/well into 96-well microtiter plates and cultivated for 24 hours in DMEM cell culture medium containing 10% FCS. The test compound is added to the cells at various concentrations, and the cells are cultivated for 24 hours in the presence of the test compound. […] The potency of the compound is calculated from the percentage of inhibition of amyloid peptide release as a function of the test compound concentration.

For the next experiment, the target named is human BACE-1 (Homo sapiens (Human), UniProt P56817). As to the kind of experiment: Test 1: Inhibition of Human BACE-1. To be noted: recombinant BACE-1, pH 4.5, fluorescence-quenched substrate. The experiment is classed as biochemical. The protocol: Test 1: Inhibition of Human BACE-1
Chain of human BACE-1 (P56817 46-457): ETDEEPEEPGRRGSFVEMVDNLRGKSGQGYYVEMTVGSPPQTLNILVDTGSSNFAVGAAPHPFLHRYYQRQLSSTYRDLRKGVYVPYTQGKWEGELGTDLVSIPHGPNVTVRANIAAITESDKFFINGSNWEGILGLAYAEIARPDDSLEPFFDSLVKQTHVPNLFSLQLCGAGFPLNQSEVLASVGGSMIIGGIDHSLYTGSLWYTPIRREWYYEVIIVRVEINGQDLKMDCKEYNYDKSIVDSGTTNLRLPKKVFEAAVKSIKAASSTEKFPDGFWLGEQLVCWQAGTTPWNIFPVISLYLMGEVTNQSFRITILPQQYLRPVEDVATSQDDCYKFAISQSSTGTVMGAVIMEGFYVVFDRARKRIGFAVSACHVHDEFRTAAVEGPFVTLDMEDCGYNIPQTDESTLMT
(§1) Recombinant BACE-1 (extracellular domain, expressed in baculovirus and purified using standard methods) at 0.1 to 1 nM concentrations is incubated with the test compound at various concentrations for 1 hour at room temperature in 100 mM acetate buffer, pH 4.5, containing 0.1% CHAPS. Activity was measured using a final concentration of 3 μM of the fluorescence-quenched substrate Q-C(HSO3)-Ile-Asp-Leu-Ala-Val-Leu-Asp-HN—CH2—CH2-Mca, where Q=2-nitro-5-amino benzoic acid and Mca=7-methoxy-4-coumarinyl acetic acid. […] Fluorescence increase was followed for 15 min, in 1 minute's intervals. The fluorescence/time slopes were calculated from duplicate wells and from wells without inhibitor and the IC50 values were calculated using a logistic 4-parameter model.

In another experiment the target is human BACE-2 (Homo sapiens (Human), UniProt Q9Y5Z0). As to the kind of experiment: Test 2: Inhibition of Human BACE-2. The experiment is classed as biochemical. The settings on record: recombinant BACE-2, pH 4.5, fluorescence-quenched substrate. How it is done:
Test 2: Inhibition of Human BACE-2
as §1, with “BACE-2” for “BACE-1”

Chain of human BACE-2 (Q9Y5Z0 63-473): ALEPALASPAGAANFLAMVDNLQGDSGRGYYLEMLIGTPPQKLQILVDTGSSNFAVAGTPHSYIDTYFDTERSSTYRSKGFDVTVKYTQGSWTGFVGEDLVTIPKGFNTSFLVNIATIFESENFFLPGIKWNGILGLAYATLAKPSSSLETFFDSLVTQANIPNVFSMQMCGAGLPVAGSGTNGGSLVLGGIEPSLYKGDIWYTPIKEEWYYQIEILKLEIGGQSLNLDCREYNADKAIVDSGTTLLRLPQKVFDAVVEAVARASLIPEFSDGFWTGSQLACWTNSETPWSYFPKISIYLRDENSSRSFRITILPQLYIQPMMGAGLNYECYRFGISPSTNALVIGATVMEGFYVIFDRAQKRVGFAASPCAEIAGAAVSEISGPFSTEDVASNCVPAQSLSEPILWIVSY

For `COc1ccnc(Nc2ccc(F)c([C@]3(C(F)F)COCC(N)=N3)c2)n1` [Example 17, (R)-5-Difluoromethyl-5-[2-fluoro-5-(4-methoxy-pyrimidin-2-ylamino)-phenyl]-5,6-dihydro-2H-[1,4]oxazin-3-ylamine], the results for the negative logarithm of the IC50 (pIC50) (in experiment [1]; at human BACE-1; at human BACE-2) were 6.40, 5.74 and 6.17, respectively.
In the case of `Cn1nc(Nc2cccc(C3(C)COCC(N)=N3)c2)c2ccc(Br)cc21` (centres unmarked) [Example 2, [3-(5-Amino-3-methyl-3,6-dihydro-2H-[1,4]oxazin-3-yl)-phenyl]-(6-bromo-1-methyl-1H-indazol-3-yl)-amine], the results for the pIC50 (in experiment [1]; at human BACE-1; on human BACE-2) were 5.46, 5.28 and < 5.00, respectively.
Regarding `COCCOc1cnc2c(Nc3ccc(F)c([C@]4(C(F)F)COCC(N)=N4)c3)nccc2c1` [Example 10, [3-((R)-5-Amino-3-difluoromethyl-3,6-dihydro-2H-[1,4]oxazin-3-yl)-4-fluoro-phenyl]-[3-(2-methoxy-ethoxy)-[1,7]naphthyridin-8-yl]-amine], the pIC50 is 7.62 in experiment [1], 6.22 on human BACE-1 and 5.09 on human BACE-2.
`NC1=N[C@@](c2cc(Nc3nccc4cc(OCCCl)cnc34)ccc2F)(C(F)F)COC1` [Example 11]: the negative-log IC50 (pIC50) was 6.60 in experiment [1], 5.72 at human BACE-1 and 5.25 at human BACE-2.
With `C[C@@]1(c2nc(Nc3ncccc3C#N)ccc2F)CO[C@@](C)(C(F)(F)F)C(N)=N1` [Example 30, 2-[6-((3R,6R)-5-Amino-3,6-dimethyl-6-trifluoromethyl-3,6-dihydro-2H-[1,4]oxazin-3-yl)-5-fluoro-pyridin-2-ylamino]-nicotinonitrile], the pIC50 in experiment [1] was 6.82; on human BACE-1, 5.82; at human BACE-2, 5.80.
Turning to `CC1(c2cc(NCc3ccco3)ccc2F)COCC(N)=N1` (centres unmarked) [Example 4, 5-{2-Fluoro-5-[(furan-2-ylmethyl)-amino]-phenyl}-5-methyl-5,6-dihydro-2H-[1,4]oxazin-3-ylamine], the negative-log IC50 (pIC50) was 6.42 in experiment [1], 5.72 on human BACE-1 and 5.62 on human BACE-2.
On to `COc1cnc(N)nc1Nc1ccc(F)c([C@]2(C(F)F)COCC(N)=N2)c1` [N*4*-[3-((R)-5-amino-3-difluoromethyl-3,6-dihydro-2H-[1,4]oxazin-3-yl)-4-fluoro-phenyl]-5-methoxy-pyrimidine-2,4-diamine], for which the negative-log IC50 (pIC50) (in experiment [1]; on human BACE-1; on human BACE-2) was < 5.00 in each case.
As to `NC1=N[C@@](c2cc(Nc3nccc4cc(Br)cnc34)ccc2F)(C(F)F)COC1` [Example 8, [3-((R)-5-Amino-3-difluoromethyl-3,6-dihydro-2H-[1,4]oxazin-3-yl)-4-fluoro-phenyl]-(3-bromo-[1,7]naphthyridin-8-yl)-amine], the pIC50 in experiment [1] is 7.48; on human BACE-1, 7.68; on human BACE-2, 7.96.
Turning to `COc1cccnc1Nc1ccc(F)c([C@]2(C)CO[C@@](C)(C(F)(F)F)C(N)=N2)n1` [Example 31, (2R,5R)-5-[3-Fluoro-6-(3-methoxy-pyridin-2-ylamino)-pyridin-2-yl]-2,5-dimethyl-2-trifluoromethyl-5,6-dihydro-2H-[1,4]oxazin-3-ylamine], the figures for the negative logarithm of the IC50 (pIC50) (in experiment [1]; at human BACE-1; on human BACE-2) were 6.00, 5.19 and 5.77, respectively.
As to `CC1(c2cccc(Nc3nsc4cc(Br)ccc34)c2)COCC(N)=N1` (centres unmarked) [Example 1, [3-(5-Amino-3-methyl-3,6-dihydro-2H-[1,4]oxazin-3-yl)-phenyl]-(6-bromo-benzo[d]isothiazol-3-yl)-amine], the pIC50 in experiment [1] is 5.54; on human BACE-1, 5.82; at human BACE-2, 5.72.
Take `COc1c(N)ncnc1Nc1ccc(F)c([C@]2(C(F)F)COCC(N)=N2)c1` [N-[3-((R)-5-amino-3-difluoromethyl-3,6-dihydro-2H-[1,4]oxazin-3-yl)-4-fluoro-phenyl]-5-methoxy-pyrimidine-4,6-diamine]: the negative-log IC50 (pIC50) on human BACE-1 and at human BACE-2 was < 5.00 each time.

As usually defined, the pIC50 is the IC50 on a negative log10 scale, so that one unit is a factor of ten.
